The values that follow come from patent EP3925949A1, “AZIDO COMPOUNDS AND METHOD FOR MONITORING ACID CERAMIDASE ACTIVITY IN INTACT CELLS USING THEM” (Consejo Superior de Investigaciones Científicas (CSIC), priority 2020, dated 2021).

Assay [1] addresses T1, acid ceramidase (AC) (Homo sapiens, UniProt Q13510).
T1 sequence (Q13510 143-395 limits assumed): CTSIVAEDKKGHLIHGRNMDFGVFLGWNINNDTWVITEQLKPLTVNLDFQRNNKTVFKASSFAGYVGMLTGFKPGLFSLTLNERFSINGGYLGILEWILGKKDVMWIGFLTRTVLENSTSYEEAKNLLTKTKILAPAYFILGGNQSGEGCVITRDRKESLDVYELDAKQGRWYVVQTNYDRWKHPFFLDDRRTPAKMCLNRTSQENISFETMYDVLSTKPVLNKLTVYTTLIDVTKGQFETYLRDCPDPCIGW
T1 sequence (Q13510 22-142 limits assumed): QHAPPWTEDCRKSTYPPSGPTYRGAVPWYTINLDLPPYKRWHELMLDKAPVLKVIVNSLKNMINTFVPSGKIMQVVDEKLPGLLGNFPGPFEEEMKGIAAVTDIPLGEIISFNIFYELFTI
Put plainly: AC activity in intact cells by UPLC-HRMS quantification of RBM5-019 and reacylated products. The class given is cell-based. More on the design: expressed in transfected cells; host or cells: A375/+Dox (overexpressing AC). Conditions: A375/+Dox. The protocol: Cells were seeded at 5 × 10^5 cells/mL into 6 well plates (1 mL/well) and were allowed to adhere for 24 h. Medium was replaced with fresh medium containing RBM5-177, RBM5-019 or RBM2-37 (5 μM final concentration). After 30 min, medium was removed; cells were washed with 400 μL PBS and harvested with 400 μL Trypsin-EDTA and 600 μL of medium. NC recombinant enzyme, lysates from A375-AC overexpressing cells, MEF5 or microsomes from HeLa T-Rex ACER1-TET-ON and HeLa T-Rex ACER2-TET-ON cells stably overexpress ACER1 orACER2 respectively were incubated with RBM5-177 or RBM5-019 (10 μM final concentration) for 3 h in the corresponding ceramidase activity buffer. Cell pellets were resuspended with 100 μL of H2O and mixed with 750 μL of methanol: chloroform, 2:1. Samples were heated at 48°C overnight and next day, 75 μL of 1 M KOH in methanol were added, followed by 2 h incubation at 37°C. Afterwards, the saponification was neutralised with 75 μL of 1 M acetic acid and solvent was removed using a […] (Thermo Scientific). Sphingolipid extracts, fortified with internal standards (N-dodecanoylsphingosine, N-dodecanoylglucosylsphingosine, N-dodecanoylsphingosylphosphorylcoline and C17-sphinganine 0.2 nmol each) were solubilised in 150 μL of methanol. Samples were then centrifuged at 9,300 g for 3 min and 130 μL of the supernatant were injected to a Waters Aquity UPLC system connected to a Waters LCT Premier Orthogonal Accelerated Time of Flight Mass Spectrometer (Waters,Milford, MA, USA) operated in positive electrospray ionisation mode. Full scan spectra from 50 to 1500 Da were acquired and individual spectra were summed to produce data points each 0.2 s. Mass accuracy and reproducibility were maintained by using an independent reference spray by the LockSpray interference. The analytical column was a 100 mm x2.1 mm i.d., 1.7 μm C8 Acquity UPLC BEH (Waters). The two mobile phases were phase A: methanol/water/formic acid (74/25/1 v/v/v); phase B: methanol/formic acid (99/1 v/v), both also contained 5 mM ammonium formate. […]

For assay [2], the target named is T1, acid ceramidase (AC). Kind of assay: AC activity-dependence of labelling (fluorescence confocal microscopy). In kind it is cell-based. More on the design: expressed in transfected cells; host or cells: FD/AC (overexpressing AC). The note with it: FD/AC cells, SOCLAC 5 µM 1 h pretreatment, RBM5-177 5 µM 4 h. The protocol:
Cells were seeded at 1 × 10^5 cells/mL on glass-bottom plates and allowed to adhere for 24 h. For golgi staining, cells were incubated with 40 µL/well of CellLight Golgi-RFP BacMam 2.0 for 24 h. […] After this time, the medium was replaced with fresh medium containing CO-1 (1 µM final concentration), and cells were incubated for 10 min. Then cells were washed 3 times with DMEM for 5 min at 37 °C, 75 nM LysoTracker Red DND-99 or 75 nM Mitotracker in phenol red-free DMEM was added to stain lysosomes or mitochondria, and cells were kept in the incubator for microscope analysis. Staining was viewed with a Zeiss LSM 880 confocal microscope or Leica TCS SP8-Hyvolution. Image analysis was performed using Fiji software.^[7] To measure the Manders's and Pearson's coefficients a threshold including organelles and discarding the background was set. Co-localization coefficients were measured using the JaCoP plugin (S. Bolte et al. J. Microsc. 2006, 224, 213-232) on the different stacks of images (at least n=4) with each stack containing 3-10 cells.

Structures are written as SMILES.

Consider `CCCCCCCCCCCCC/C=C/[C@@H](O)[C@H](CO)NC(=O)CCl` [SOCLAC], for which the “effect on formation of RBM5-19 and transacylated products” value on acid ceramidase (AC) [1] (SOCLAC 5 µM 1 h, RBM5-177 5 µM 4 h (Fig. 4B)) is “precluded the formation of both RBM5-19 and transacylated products”. For the same compound, the “effect on levels of RBM5-19 and reacylated products” value on acid ceramidase (AC) [1] (SOCLAC 5 µM 1 h pre treatment, RBM5-177 5 µM 4 h (Fig. 6B)) was “dropped dramatically”. Besides, the “effect on lysosome labelling by RBM5-177/CO-1” value at acid ceramidase (AC) [2] was “no lysosomal labelling occurred”.
